Literature values in patent publication US8636985B2, “Functional formulation in chewing gum” (priority 2010, dated 2014).

Settings: several experimental models

CC1=C(CO)C(=O)O[C@@H]([C@@H](C)[C@H]2CC[C@H]3[C@@H]4C[C@H]5O[C@]56[C@@H](O)C=CC(=O)[C@]6(C)[C@H]4CC[C@]23C)C1 [Withaferin A]
anti-inflammatory and antiarthritic properties: anti-inflammatory and antiarthritic properties
